# Results as given in publication PMC7915026, “Sulfaguanidine Hybrid with Some New Pyridine-2-One Derivatives: Design, Synthesis, and Antimicrobial Activity against Multidrug-Resistant Bacteria as Dual DNA Gyrase and DHFR Inhibitors” (Antibiotics, 2021).
# Key:
# B. subtilis ATCC 6633 [1] = assay: Inhibition zone, paper disk/agar diffusion; further: test concentration or dose not given here; assay type: cell-based; settings: B. subtilis; Na = no activity
# Excerpt: (§1) The antimicrobial activity performed at the bacteriology laboratory, Botany and Microbiology Department, Faculty of Science, Al-Azhar University, Cairo, Egypt. The inhibition zone (IZ) of the tested derivatives expressed as the diameter (mm) according to the agar plate diffusion method.
# C. albicans (ATCC 10231) [2] = assay: Inhibition zone, paper disk/agar diffusion; assay type: cell-based; settings: Na = no activity
# Excerpt: as §1
# E. coli ATCC 25922 [3] = assay: Inhibition zone, paper disk/agar diffusion; assay type: cell-based; settings: E. coli; Na = no activity
# Excerpt: as §1
# E. faecalis ATCC 29212 [4] = assay: Inhibition zone, paper disk/agar diffusion; further: test concentration or dose not given here; assay type: cell-based; settings: E. faecalis; Na = no activity
# Excerpt: as §1
# [5] = test system: F. oxysporum (RCMB 008002); assay: Inhibition zone, paper disk/agar diffusion; assay type: cell-based; settings: Na = no activity; further: test concentration or dose not given here
# Excerpt: as §1
# P. aeruginosa ATCC 27853 [6] = assay: Inhibition zone, paper disk/agar diffusion; assay type: cell-based; settings: P. aeruginosa; Na = no activity
# Excerpt: as §1
# S. aureus ATCC 29213 [7] = assay: Inhibition zone, paper disk/agar diffusion; further: test concentration or dose not given here; assay type: cell-based; settings: S. aureus; Na = no activity
# Excerpt: as §1
# S. typhi ATCC 6539 = assay: Inhibition zone, paper disk/agar diffusion; assay type: cell-based; settings: S. typhi; Na = no activity
# Excerpt: as §1
# B. subtilis ATCC 6633 [8] = assay: MIC and MBC determination; assay type: cell-based; settings: Bacillus subtilis, ATCC6633, B. subtilis
# S. aureus ATCC 29213 [9] = assay: MIC and MBC determination; assay type: cell-based; settings: Staphylococcus aureus, ATCC29213, S. aureus
# E. faecalis ATCC 29212 [10] = assay: MIC and MBC determination; assay type: cell-based; settings: Enterococcus faecalis, ATCC29212, E. faecalis
# E. coli ATCC 25922 [11] = assay: MIC and MBC determination; assay type: cell-based; settings: Escherichia coli, ATCC25922, E. coli
# P. aeruginosa ATCC 27853 [12] = assay: MIC and MBC determination; assay type: cell-based; settings: Pseudomonas aeruginosa, ATCC27853, P. aeruginosa
# [13] = test system: Salmonella typhi (S. typhi ATCC 6539); assay: microbe, parasite or virus in culture; assay type: cell-based; settings: Salmonella enterica, Salmonella typhi
# C. albicans (ATCC 10231) [14] = assay: MIC and MFC determination; assay type: cell-based
# [15] = test system: F. oxysporum (RCMB 008002); assay: MIC and MFC determination; assay type: cell-based
# E. coli ATCC BAA-196 [16] = assay: Inhibition zone against multidrug-resistant bacteria; further: test concentration or dose not given here; assay type: cell-based; settings: MDRB E. coli ATCC BAA-196
# Excerpt: (§2) Norfloxacin was used as a positive control for the multidrug resistance study.
# as §1
# [17] = test system: P. aeruginosa ATCC BAA-2111; assay: as above; assay type: cell-based; settings: MDRB P. aeruginosa ATCC BAA-2111
# Excerpt: as §2, §1
# S. aureus ATCC 33591 [18] = assay: as above; assay type: cell-based; settings: MDRB S. aureus ATCC 33591
# Excerpt: as §2, §1
# S. aureus ATCC 43300 [19] = assay: as above; assay type: cell-based; settings: MDRB S. aureus ATCC 43300
# Excerpt: as §2, §1
# E. coli ATCC BAA-196 [20] = assay: MIC and MBC against multidrug-resistant strains; assay type: cell-based; settings: Escherichia coli, ATCCBAA196, E. coli ATCC BAA-196
# Excerpt: as §2
# (§3) The experiment was repeating for three-times.
# [21] = test system: P. aeruginosa ATCC BAA-2111; assay: MIC and MBC against multidrug-resistant strains; assay type: cell-based; settings: Pseudomonas aeruginosa, ATCCBAA2111, P. aeruginosa ATCC BAA-2111
# Excerpt: as §2, §3
# S. aureus ATCC 33591 [22] = assay: MIC and MBC against multidrug-resistant strains; assay type: cell-based; settings: Staphylococcus aureus, ATCC33591, S. aureus ATCC 33591
# Excerpt: as §2, §3
# S. aureus ATCC 43300 [23] = assay: MIC and MBC against multidrug-resistant strains; assay type: cell-based; settings: Staphylococcus aureus, ATCC43300, S. aureus ATCC 43300
# Excerpt: as §2, §3
# S. aureus DNA gyrase = S. aureus DNA gyrase (Staphylococcus aureus, UniProt P0A0K8+P20831); assay: In vitro DNA gyrase supercoiling enzymatic assay; assay type: biochemical
# spleen and thymus = assay: In vivo immunomodulation: immune organ weight and indexes; design: Spleen index: unit not given here; settings: mice
# Excerpt: Both the spleen and thymus have important antibacterial and fungal immune organ responses, and any change in weight, and indexes can reflect the level of immune regulation. Additionally, the relative spleen and thymus indexes are important indices for nonspecific immunity and potential immunomodulatory compounds that increase the spleen and thymus weight. This increase is due to immune cells’ stimulation in the spleen and thymus. […]
# [24] = test system: CD4+ and CD8+ T lymphocytes; assay: In vivo T lymphocyte subsets from peripheral blood, flow cytometry; settings: mice
# Excerpt: Activation of immune cells as CD4^+ and CD8^+ T cells is one possible mechanism of a drug’s immune stimulus activity. An increase in these cells is thought to be a good indicator of an active immune response to infections. So, our work extended to study the effect of the most promising derivatives (2d, 8, and 11) on T lymphocyte subsets (CD4^+ and CD8^+) from peripheral blood, and determined the relative level in model mice that analyzed by flow cytometry after the period of treating.
# In vitro intracellular killing activities for the most promising six derivatives 2a, 2b, 2d, 3a, 8, and 11 were performed according to reported methods.
# Wherever Mean Diameter of Inhibition Zone is given: test concentration or dose not given here.
# Chain of S. aureus DNA gyrase (P20831 whole entry): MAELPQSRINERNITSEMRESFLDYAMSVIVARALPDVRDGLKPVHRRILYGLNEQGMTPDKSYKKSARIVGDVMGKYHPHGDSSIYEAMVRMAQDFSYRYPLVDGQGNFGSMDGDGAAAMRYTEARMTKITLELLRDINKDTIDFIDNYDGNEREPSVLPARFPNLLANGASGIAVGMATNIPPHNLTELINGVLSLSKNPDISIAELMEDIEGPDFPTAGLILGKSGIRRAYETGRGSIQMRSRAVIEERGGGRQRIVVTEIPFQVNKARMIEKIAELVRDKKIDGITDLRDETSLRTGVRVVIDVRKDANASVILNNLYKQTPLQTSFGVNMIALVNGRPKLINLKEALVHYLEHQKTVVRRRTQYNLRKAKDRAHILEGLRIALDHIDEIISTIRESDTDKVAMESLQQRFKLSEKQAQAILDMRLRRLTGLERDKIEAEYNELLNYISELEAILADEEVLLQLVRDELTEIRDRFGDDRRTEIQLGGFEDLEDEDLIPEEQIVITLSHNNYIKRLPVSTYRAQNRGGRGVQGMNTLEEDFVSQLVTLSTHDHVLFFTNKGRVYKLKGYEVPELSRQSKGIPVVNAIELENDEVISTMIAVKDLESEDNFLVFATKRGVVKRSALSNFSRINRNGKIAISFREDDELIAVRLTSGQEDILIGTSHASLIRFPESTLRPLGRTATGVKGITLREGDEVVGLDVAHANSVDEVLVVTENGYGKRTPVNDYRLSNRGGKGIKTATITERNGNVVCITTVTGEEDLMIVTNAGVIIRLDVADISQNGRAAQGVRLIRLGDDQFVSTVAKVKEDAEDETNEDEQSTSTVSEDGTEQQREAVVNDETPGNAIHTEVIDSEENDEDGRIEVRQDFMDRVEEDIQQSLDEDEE
# Chain of S. aureus DNA gyrase (P0A0K8 whole entry): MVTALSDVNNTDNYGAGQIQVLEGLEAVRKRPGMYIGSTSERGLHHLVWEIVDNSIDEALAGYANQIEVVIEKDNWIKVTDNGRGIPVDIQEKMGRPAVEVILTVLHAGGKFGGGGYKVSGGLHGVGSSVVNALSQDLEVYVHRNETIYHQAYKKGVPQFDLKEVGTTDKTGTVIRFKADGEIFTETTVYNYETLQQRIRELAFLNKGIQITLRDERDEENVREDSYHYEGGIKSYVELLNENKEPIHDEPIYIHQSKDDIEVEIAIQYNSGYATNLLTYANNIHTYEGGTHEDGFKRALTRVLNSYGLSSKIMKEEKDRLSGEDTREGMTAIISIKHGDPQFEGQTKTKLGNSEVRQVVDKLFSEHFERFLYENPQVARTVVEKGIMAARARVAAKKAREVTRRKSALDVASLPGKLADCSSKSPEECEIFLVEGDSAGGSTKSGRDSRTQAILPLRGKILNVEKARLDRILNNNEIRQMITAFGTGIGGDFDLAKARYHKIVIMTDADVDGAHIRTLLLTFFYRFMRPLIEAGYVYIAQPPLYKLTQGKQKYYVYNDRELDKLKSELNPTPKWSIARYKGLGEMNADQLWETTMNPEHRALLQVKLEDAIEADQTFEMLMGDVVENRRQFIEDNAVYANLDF
structure (smiles),measurement,setting,value
"N=C(N)NS(=O)(=O)c1ccc(NC(=O)c2cc3ccccc3oc2=N)cc1 [Compound 11, N-(4-(N-Carbamimidoylsulfamoyl)phenyl)-2-imino-2H-chromene-3-carboxamide]",Mean Diameter of the Inhibition Zone,B. subtilis ATCC 6633 [1],28 ± 0.11 mm
same,Mean Diameter of the Inhibition Zone,C. albicans (ATCC 10231) [2],22 ± 0.21 mm
same,Mean Diameter of the Inhibition Zone,E. coli ATCC 25922 [3],25 ± 0.43 mm
same,Mean Diameter of the Inhibition Zone,E. faecalis ATCC 29212 [4],29± 0.54 mm
same,Mean Diameter of the Inhibition Zone,[5],18 ± 0.45 mm
same,Mean Diameter of the Inhibition Zone,P. aeruginosa ATCC 27853 [6],24 ± 0.13 mm
same,Mean Diameter of the Inhibition Zone,S. aureus ATCC 29213 [7],24 ± 0.29 mm
same,Mean Diameter of the Inhibition Zone,S. typhi ATCC 6539,18 ± 0.36 mm
same,MBC,B. subtilis ATCC 6633 [8]; read-out: MBC,17.2 ± 0.54 µM
same,MIC,B. subtilis ATCC 6633 [8]; read-out: MIC,10.1 ± 0.68 µM
same,MBC,S. aureus ATCC 29213 [9]; read-out: MBC,40.5 ± 1.02 µM
same,MIC,S. aureus ATCC 29213 [9]; read-out: MIC,20.3 ± 0.67 µM
same,MBC,E. faecalis ATCC 29212 [10]; read-out: MBC,81.1 ± 0.98 µM
same,MIC,E. faecalis ATCC 29212 [10]; read-out: MIC,40.5 ± 0.74 µM
same,MBC,E. coli ATCC 25922 [11]; read-out: MBC,40.5 ± 0.75 µM
same,MIC,E. coli ATCC 25922 [11]; read-out: MIC,20.3 ± 0.36 µM
same,MBC,P. aeruginosa ATCC 27853 [12]; read-out: MBC,144 ± 1.47 µM
same,MIC,P. aeruginosa ATCC 27853 [12]; read-out: MIC,72 ± 0.96 µM
same,MBC,[13]; read-out: MBC,94.7 ± 0.79 µM
same,MIC,[13]; read-out: MIC,48 ± 0.85 µM
same,MFC/MIC,C. albicans (ATCC 10231) [14],<2
same,MFC,"C. albicans (ATCC 10231) [14]; Candida albicans, ATCC10231, read-out: MFC",45.6 ± 0.47 µM
same,MIC,"C. albicans (ATCC 10231) [14]; Candida albicans, ATCC10231, read-out: MIC",24 ± 0.41 µM
same,MFC/MIC,[15],<2
same,MFC,"[15]; Fusarium oxysporum, RCMB008002, read-out: MFC",145.9 ± 1.25 µM
same,MIC,"[15]; Fusarium oxysporum, RCMB008002, read-out: MIC",81.08 ± 0.54 µM
same,Mean Diameter of Inhibition Zone,E. coli ATCC BAA-196 [16],19 ± 0.88 mm
same,Mean Diameter of Inhibition Zone,[17],23 ± 0.25 mm
same,Mean Diameter of Inhibition Zone,S. aureus ATCC 33591 [18],22 ± 0.65 mm
same,Mean Diameter of Inhibition Zone,S. aureus ATCC 43300 [19],17 ± 0.3 mm
same,MBC,E. coli ATCC BAA-196 [20]; read-out: MBC,48 ± 0.81 µM
same,MIC,E. coli ATCC BAA-196 [20]; read-out: MIC,24 ± 0.49 µM
same,MBC,[21]; read-out: MBC,81.1 ± 0.86 µM
same,MIC,[21]; read-out: MIC,40.5 ± 0.74 µM
same,MBC,S. aureus ATCC 33591 [22]; read-out: MBC,19.2 ± 0.65 µM
same,MIC,S. aureus ATCC 33591 [22]; read-out: MIC,10.1 ± 0.29 µM
same,MBC,S. aureus ATCC 43300 [23]; read-out: MBC,81.1 ± 0.85 µM
same,MIC,S. aureus ATCC 43300 [23]; read-out: MIC,40.52 ± 0.36 µM
same,IC50,S. aureus DNA gyrase,39.4 ± 1.15 µM
same,Spleen index,spleen and thymus,0.008 ± 0.00
same,Spleen weight,spleen and thymus,190 ± 0.074 mg
same,Thymus index,spleen and thymus,0.455 ± 0.07 mg/g
same,Thymus weight,spleen and thymus,13.67 ± 0.53 mg
same,T cells CD4+,[24],75.20 ± 0.97%
same,T cells CD8+,[24],24.05 ± 0.32%
